# Laboratory results taken from US20260356834A1, “ANTICONVULSIVE COMPOUNDS AND USES THEREOF” (Jazz Pharmaceuticals Research UK Limite, priority 2023, published 2026).
# Where “and” joins values, the source holds several entries; their conditions need not be identical. Equal values may be shown once. Read-outs that look alike come from different tables or passages of the source. Marks after values point to notes of the source that are not given here.
# What was measured:
# [1] = tested on: C57BL/6J mice; assay: mouse maximal electroshock seizure threshold model using minimal sample sizes (mini-MEST); conditions: 30 min post dose
# Method: An increase in seizure threshold is indicative of an anticonvulsive effect.
# The ability of a test compound to alter the stimulus intensity, expressed as current (mA), required to induce the presence of tonic hind limb extensor convulsions, is assessed in the MEST.
# In the mini-MEST test, a lower n number is used.
# Male C57BL/6J mice were housed in groups of 6. Mice were kept under standard conditions (12 hour light cycle; light intensity of 25-75 lux) and fed a diet of certified rodent CR 14% protein rodent diet (LabDiet® 4CR4). Mice were 8-9 weeks old at the start of the study.
# Naïve mice were acclimatised to the procedure room in their home cages for up to 7 days, with food and water available ad libitum.
# All animals were weighed at the beginning of the study and randomly assigned to treatment groups based on a mean distribution of body weight across groups.
# The first animal within a treatment group was given a shock at the expected or estimated CC50 current. For subsequent animals, the current was lowered or raised depending on the convulsions outcome from the preceding animal in log scale intervals.
# Data generated from each treatment group were used to calculate the CC50±SEM values for the treatment group.
# Vehicle: (5% ethanol, 10% Solutol® (Kolliphor® HS 15), 85% saline). 1 mL of ethanol, 2 mL of Solutol™ were warmed to 60 °C, in 17 mL of 0.9% saline.
# Test compounds: 5-50 mg/kg in a 1:2:17 ethanol:Solutol®:saline formulation (as used for vehicle).
# [2] = tested on: C57BL/6J mice; assay: mouse maximal electroshock seizure threshold model (MEST); format: in vivo; conditions: for CC50 +/− SEM: HPMC vehicle
# Method: Vehicle=1:2:17 ethanol:Solutol® (Kolliphor® HS 15):saline: 1 mL of ethanol and 2 mL of solutol were warmed to 60 °C and 17 mL of 0.9% saline was added slowly. […]
# Vehicle=0.5% HPMC and 0.1% Tween 80:0.5% HPMC and 0.1% Tween 80 in water.
# [3] = tested on: RjOrl: Swiss mice; assay: mouse 6 Hz (44 mA) model of partial seizures; format: in vivo; conditions: for Mean Forelimb Clonus +/− SEM: score 0-2; for Change from vehicle (forelimb clonus): vs vehicle (HPMC)
# Excerpt: The 6 Hz (44 mA) model of partial seizures, which detects anticonvulsant activity, follows that described by Brown et al. 1953.
# […] A decrease in forelimb clonus score is indicative of protection from seizure and an anticonvulsive effect.
# When conducted at a 44 mA stimulus intensity in mice, the 6 Hz test can differentiate compounds with potential for the treatment of focal-onset seizures that are often resistant to current anti-epileptic drugs.
# Male RjOrl: Swiss mice (Janvier Labs, 53940 Le Genest-Saint-Isle, France), 5 weeks old, weighing 27-38 g at the beginning of the experiment. Animals were acclimatized to the Test Facility for at least 5 days after delivery and randomly housed in groups of 5 to 8 in macrolon cages on wood litter with free access to food and water.
# The animal house was maintained under artificial lighting (12 hours) between 7:00 and 19:00 in a controlled ambient temperature of 22±2 °C and relative humidity between 30-70%.
# Before transcorneal stimulation, a drop of tetracaine solution (1%) was applied on each eye of the mouse for local anesthesia. Between 1-10 minutes later and at the designated pre-treatment (see below), the mice were administered a rectangular current (44 mA, rectangular pulse: 0.2 ms pulse width, 3 s duration, (6 Hz) via corneal electrodes connected to a constant current shock generator (Ugo Basile: type 7801).
# The results for the number of seizures as reflected by forelimb clonus were recorded immediately after current administration. Forelimb clonus was scored as absent (0=no forelimb clonus), mild (1=clonus with one forelimb) and strong (2=clonus with both forelimbs). The experimenters were blinded to the treatment. […]
# The administration volume was 10 mL/kg.
# Due to the number of animals tested, the experiment was divided in 2 sub-experiments on 2 consecutive days with equivalent numbers of mice per group and per sub-experiment.
# Data were discrete values so considered to be non-normally distributed based on validation data, therefore non-parametric tests were utilized. Quantitative data (scores) with the test substance were analyzed by comparing test compound-treated groups with the 1:2:17 vehicle control using Kruskal-Wallis test with Dunn's multiple comparisons test when the Kruskal-Wallis test was significant. Quantitative data with the reference substance were analyzed using Mann-Whitney U test as compared to saline vehicle.
# [4] = tested on: C57BL/6J mice; conditions: cited from earlier work
# [5] = tested on: C57BL/6J mice; conditions: cited from earlier work; remark: listed apart in the source
# [6] = tested on: DBA/2 mice; conditions: De Sarro et al., 2017; cited from earlier work
Compound,CC50 +/− SEM ([1]; 30 mg/kg i.p.) [mA],Change from vehicle (CC50) ([1]; 30 mg/kg i.p.) [%],other results
"CCCc1cc(O)c(-c2cccn3ccnc23)c(O)c1 [Compound 1, 2-(imidazo[1,2-a]pyridin-8-yl)-5-propylbenzene-1,3-diol]",92.9 ± 1.1,200,–
"CCCc1cc(O)c(-c2c(C)ccn3cc(C)nc23)c(O)c1 [Compound 3, 2-(2,7-Dimethylimidazo[1,2-a]pyridin-8-yl)-5-propylbenzene-1,3-diol]",35.3 ± 1.1,32,–
"CCCc1cc(O)c(-c2c(C(F)(F)F)ccn3ccnc23)c(O)c1 [Compound 5, 2-(7-trifluoromethylimidazo[1,2-a]pyridin-8-yl)-5-propylbenzene-1,3-diol]",<33.0,<12,–
"CCCc1cc(O)c(-c2c(Cl)ccn3ccnc23)c(O)c1 [Compound 6, 2-(7-Chloroimidazo[1,2-a]pyridin-8-yl)-5-propylbenzene-1,3-diol]",49.9 ± 1.9,70,–
"CCCc1cc(O)c(-c2c(C)c(C)cn3ccnc23)c(O)c1 [Compound 7, 2-(6,7-Dimethylimidazo[1,2-a]pyridin-8-yl)-5-propylbenzene-1,3-diol]",53.5 ± 1.1,100,–
"CCCc1cc(O)c(-c2c(F)ccn3ccnc23)c(O)c1 [Compound 8, 2-(7-Fluoroimidazo[1,2-a]pyridin-8-yl)-5-propylbenzene-1,3-diol]",65.8 ± 1.9,145,–
"CCCc1cc(O)c(-c2c(C)ccn3c(C)cnc23)c(O)c1 [Compound 9, 2-(3,7-Dimethylimidazo[1,2-a]pyridin-8-yl)-5-propylbenzene-1,3-diol]",58.6 ± 1.6,152,–
"CCCc1cc(O)c(-c2c(C)ccn3c(Cl)cnc23)c(O)c1 [Compound 10, 2-(3-Chloro-7-methylimidazo[1,2-a]pyridin-8-yl)-5-propylbenzene-1,3-diol]",<33.0 ± 0.0,<29,–
"CCCc1cc(O)c(-c2c(C)c(F)cn3ccnc23)c(O)c1 [Compound 11, 2-(6-Fluoro-7-methylimidazo[1,2-a]pyridin-8-yl)-5-propylbenzene-1,3-diol]",–,–,"CC50 +/− SEM ([2]; 5 mg/kg p.o., 15 min): 25.8 ± 1.9 mA; Change from vehicle (CC50) ([2]; 5 mg/kg p.o., 15 min, vs HPMC vehicle): −3%; CC50 +/− SEM ([2]; 25 mg/kg p.o., 15 min): 37.5 ± 2.2 mA; Change from vehicle (CC50) ([2]; 25 mg/kg p.o., 15 min, vs HPMC vehicle): 42%***; CC50 +/− SEM ([2]; 50 mg/kg p.o., 30 min): 100.8 ± 3.9 mA; Change from vehicle (CC50) ([2]; 50 mg/kg p.o., 30 min, vs HPMC vehicle): 281%***; CC50 +/− SEM ([2]; 100 mg/kg p.o., 30 min): 250.0 ± 3.7 mA; Change from vehicle (CC50) ([2]; 100 mg/kg p.o., 30 min, vs HPMC vehicle): 843%***; Mean Forelimb Clonus +/− SEM ([3]; 25 mg/kg p.o., 15 min): 0.85 ± 0.13; Change from vehicle (forelimb clonus) ([3]; 25 mg/kg p.o., 15 min): −15%; Mean Forelimb Clonus +/− SEM ([3]; 50 mg/kg p.o., 30 min): 0.55 ± 0.11; Change from vehicle (forelimb clonus) ([3]; 50 mg/kg p.o., 30 min): −45%; Mean Forelimb Clonus +/− SEM ([3]; 100 mg/kg p.o., 30 min): 0.80 ± 0.14; Change from vehicle (forelimb clonus) ([3]; 100 mg/kg p.o., 30 min): −20%; Mean Forelimb Clonus +/− SEM ([3]; 200 mg/kg p.o., 60 min): 0.75 ± 0.12; Change from vehicle (forelimb clonus) ([3]; 200 mg/kg p.o., 60 min): −25%"
"CCCc1cc(O)c(-c2c(C)ccn3cc(Cl)nc23)c(O)c1 [Compound 12, 2-(2-Chloro-7-methylimidazo[1,2-a]pyridin-8-yl)-5-propylbenzene-1,3-diol]",57.3 ± 1.9,145,–
"CCCCCc1cc(O)c(-c2c(C)ccn3ccnc23)c(O)c1 [Compound 13, 2-(7-Methylimidazo[1,2-a]pyridin-8-yl)-5-pentylbenzene-1,3-diol]",92.9 ± 1.1,263,–
"Cc1ccn2ccnc2c1-c1c(O)cccc1O [Compound 14, 2-(7-Methylimidazo[1,2-a]pyridin-8-yl)benzene-1,3-diol]",<33.0,<52,–
"CCCc1cc(O)c(-c2c(C)ccn3cc(C(F)(F)F)nc23)c(O)c1 [Compound 15, 2-(2-Trifluoromethyl-7-methylimidazo[1,2-a]pyridin-8-yl)-5-propylbenzene-1,3-diol]",35.3 ± 1.1,62,–
"CCCc1cc(O)c(-c2c(C)c(C(F)(F)F)cn3ccnc23)c(O)c1 [Compound 16, 2-(6-Trifluoromethyl-7-methylimidazo[1,2-a]pyridin-8-yl)-5-propylbenzene-1,3-diol]",<33.0,<35,–
"CCCCCc1cc(O)c(-c2c(C)c(Cl)cn3ccnc23)c(O)c1 [Compound 17, 2-(6-Chloro-7-methylimidazo[1,2-a]pyridin-8-yl)-5-pentylbenzene-1,3-diol]",80.9 ± 10.8,231,–
"CCCc1cc(O)c(-c2c(C3CC3)ccn3ccnc23)c(O)c1 [Compound 18, 2-(7-Cyclopropylimidazo[1,2-a]pyridin-8-yl)-5-propylbenzene-1,3-diol]",80.9 ± 1.1,216,CC50 +/− SEM ([1]; 50 mg/kg p.o.): 49.9 ± 1.9 mA; Change from vehicle (CC50) ([1]; 50 mg/kg p.o.): 86%
"Cc1c(Cl)cn2ccnc2c1-c1c(O)cc(Cl)cc1O [Compound 19, 5-Chloro-2-(6-chloro-7-methylimidazo[1,2-a]pyridin-8-yl)benzene-1,3-diol]",–,–,CC50 +/− SEM ([1]; 50 mg/kg p.o.): 57.3 ± 1.9 mA; Change from vehicle (CC50) ([1]; 50 mg/kg p.o.): 86%
"CCC(C)(C)c1cc(O)c(-c2c(C)c(Cl)cn3ccnc23)c(O)c1 [Compound 20, 2-(6-Chloro-7-methylimidazo[1,2-a]pyridin-8-yl)-5-(tert-pentyl)benzene-1,3-diol]",40.6 ± 1.1,59,–
"CCC(C)(C)c1cc(O)c(-c2c(C)ccn3ccnc23)c(O)c1 [Compound 21, 2-(7-Methylimidazo[1,2-a]pyridin-8-yl)-5-(tert-pentyl)benzene-1,3-diol]",<33.0,–,–
"Cc1ccn2ccnc2c1-c1c(O)cc(C2CCCC2)cc1O [Compound 22, 5-Cyclopentyl-2-(7-methylimidazo[1,2-a]pyridin-8-yl)benzene-1,3-diol]",57.3 ± 1.9,124,–
"CCCc1cc(O)c(-c2c(C)c(C3CC3)cn3ccnc23)c(O)c1 [Compound 23, 2-(6-Cyclopropyl-7-methylimidazo[1,2-a]pyridin-8-yl)-5-propylbenzene-1,3-diol]",<33.0,<52,–
"Cc1c(F)cn2ccnc2c1-c1c(O)cc(CCC(F)(F)F)cc1O [Compound 24, 2-(6-Fluoro-7-methylimidazo[1,2-a]pyridin-8-yl)-5-(3,3,3-trifluoropropyl)benzene-1,3-diol]",–,–,CC50 +/− SEM ([1]; 25 mg/kg p.o.): 92.9 ± 1.1 mA; Change from vehicle (CC50) ([1]; 25 mg/kg p.o.): 272%; CC50 +/− SEM ([1]; 50 mg/kg p.o.): >131.0 mA; Change from vehicle (CC50) ([1]; 50 mg/kg p.o.): >424%
"CN1C(=O)CN=C(c2ccccc2)c2cc(Cl)ccc21 [Diazepam, diazepam, reference compound]",–,–,"Change from vehicle (CC50) ([2]; 2.5 mg/kg i.p., 30 min, vs 1:1:18 ethanol:Kolliphor EL:saline vehicle): 406%^###; Change from vehicle (CC50) ([2]; 2.5 mg/kg i.p., 30 min, vs 1:2:17 ethanol:Solutol:saline vehicle): 439%^###; Change from vehicle (CC50) ([2]; 2.5 mg/kg i.p., 30 min, vs HPMC vehicle): 652%*** and 526%***; anticonvulsive properties in the MEST test ([4]; mouse, in vivo): exhibit anticonvulsive properties; anticonvulsive properties in the MEST test ([5]; mouse, in vivo): exhibit anticonvulsive properties"
NC(=O)N1c2ccccc2C=Cc2ccccc21 [carbamazepine],–,–,"protection from clonic convulsions, tonic convulsions and respiratory arrest [6]: protect DBA/2 mice from clonic convulsions, tonic convulsions and respiratory arrest"
picrotoxin,–,–,seizure threshold ([4]; known convulsive agent): a reduction in seizure threshold; seizure threshold ([5]; known convulsive agent): a reduction in seizure threshold
